Results on four compounds are retold here after US20240368157A1, “FORMS AND COMPOSITIONS OF A JAK2 INHIBITOR” (Ajax Therapeutics, Inc., priority 2023, published 2024).

What is called solubility is how much of the substance goes into solution per volume.

Data set [1] in a line: Approximate solubility estimates (solvent incremental addition, visual observation). As to conditions: for solubility: thermodynamic from solid. The format is physicochemical. Here is the method:
Approximate solubility estimates of Compound 1 Lot I were ascertained using the solvent incremental addition method and visual observation (Table 2.1). […] Approximate solubilities were calculated based on the total solvent used to achieve a solution, as judged by visual observation. Actual solubilities may be greater because of the volume of solvent portions utilized or a slow rate of dissolution. […] If dissolution occurred at the first aliquot, the value was reported as “>”

Data set [2] can be described thus: Exposure experiments at high relative humidity. The format is physicochemical. As to conditions: RT, 17 days. Here is the method: In a series of exposure experiments, Compound 1 Lot I was exposed to high relative humidity. Generally, approx. 50 mg Compound 1 was transferred to vials, and the vials were placed open in chambers containing saturated aqueous solutions of various salts, which are known to generate various relative humidity levels in the chambers. See, e.g., “Standard Practice for Maintaining Constant Relative Humidity by Means of Aqueous Solutions” ASTM Standard E 104-85 (1996); “Humidity Fixed Points of Binary Saturated Aqueous Solutions” Greenspan, L. J. Res. Natl. Bur. Stand., Sect. A […], 81A, 89-96; “Saturated Salt Solutions for Maintaining Specified Relative Humidities” Nyqvist, H. E. Int. J. Pharma. Technol. Prod. Manuf. 1983, 4, 47-48; and “Evaluation of Relative Humidity Values for Saturated Aqueous Salt Solutions Using Osmotic Coefficients Between 50 and 100° C.” Moisture Humidity, Proc. Int. Symp. 1985, 577-96.

Data set [3] is described as follows: Dynamic vapor sorption (DVS). The format is physicochemical. As to conditions: for Hysteresis: in % (unit assumed); for weight gain during sorption: DVS. On the procedure:
Moisture sorption/desorption data were collected on a Surface Measurement System DVS Intrinsic instrument. Samples were not dried prior to analysis. Sorption and desorption data were collected over a range from 5% to 95% RH to 5% RH at 10% RH increments under a nitrogen purge. The equilibrium criterion used for analysis was less than 0.0100% weight change in 5 minutes with a maximum equilibration time of 3 hours. Data were not corrected for the initial moisture content of the samples.

Data set [4] is described as follows: Interconversion slurry experiments. Conditions: interconversion slurries, ambient temperature to 65° C.; listed as Compound 1 Form I.
Method: Mixtures of Form H and Form I with Form B were utilized in these interconversion slurry experiments. […] The interconversion slurries were performed at ambient and elevated (65° C.) temperatures in various solvents and solvent mixtures.

The structures appear in SMILES notation. ≈ marks a conversion by molar mass, not a printed value. Like-named read-outs stand apart in the source and are kept apart here. Marks after values point to notes of the source that are not given here. Some results are limits rather than exact numbers.

Consider `CN(C)C(=O)Nc1cc(Oc2cnc3nc(Nc4cc(C(F)(F)F)cn(C)c4=O)n(C)c3c2C#N)ccn1` [Compound 1 Lot II], for which the solubility is 4000 µg/mL (≈ 7580 µM) in data set [1] (1-BuOH:H2O (90:10), 80 °C, organic solvent or mixture, 1-BuOH:H2O (90:10), aw = 0.82, 80° C., read-out: Solubility) and 1000 µg/mL (≈ 1900 µM) in data set [1] (1-BuOH:H2O (96:4), 85 °C, organic solvent or mixture, 1-BuOH:H2O (96:4), aw = 0.49, 85° C., read-out: Solubility).

Regarding `CN(C)C(=O)Nc1cc(Oc2cnc3nc(Nc4cc(C(F)(F)F)cn(C)c4=O)n(C)c3c2C#N)ccn1` [Compound 1 Lot I], the solubility was 1000 µg/mL (≈ 1900 µM) in data set [1] (2-butanone (MEK), organic solvent or mixture, 2-butanone (MEK), ambient, read-out: Solubility); 1000 µg/mL (≈ 1900 µM) in data set [1] (AcOH:H2O (20:80), aqueous with cosolvent or surfactant or cyclodextrin, AcOH:H2O (20:80), aw = 0.94, ambient, read-out: Solubility); 14000 µg/mL (≈ 26500 µM) in data set [1] (AcOH:H2O (50:50), aqueous with cosolvent or surfactant or cyclodextrin, AcOH:H2O (50:50), aw = 0.84, ambient, read-out: Solubility); greater than 51000 µg/mL in data set [1] (AcOH:H2O (85:15), organic solvent or mixture, AcOH:H2O (85:15), aw = 0.51, ambient, read-out: Solubility); 2000 µg/mL (≈ 3790 µM) in data set [1] (CHCl3, organic solvent or mixture, CHCl3, ambient, read-out: Solubility); 8000 µg/mL (≈ 15200 µM) in data set [1] (DMA, organic solvent or mixture, DMA, ambient, read-out: Solubility). In addition, the solubility in data set [1] (DMSO, organic solvent or mixture, DMSO, ambient, read-out: Solubility) is 6000 µg/mL (≈ 11400 µM); in data set [1] (EtOAc, organic solvent or mixture, EtOAc, ambient, read-out: Solubility) it was less than 1000 µg/mL; in data set [1] (EtOH:H2O (90:10), organic solvent or mixture, EtOH:H2O (90:10), aw = 0.49, ambient, read-out: Solubility) it was 1000 µg/mL (≈ 1900 µM); in data set [1] (MIBK, organic solvent or mixture, MIBK, ambient, read-out: Solubility) it was less than 1000 µg/mL; in data set [1] (MeCN, organic solvent or mixture, MeCN, ambient, read-out: Solubility), less than 1000 µg/mL; in data set [1] (MeOH, organic solvent or mixture, MeOH, ambient, read-out: Solubility), less than 1000 µg/mL. Moreover, the solubility in data set [1] (MeOH:CHCl3 (50:50), organic solvent or mixture, MeOH:CHCl3 (50:50), ambient, read-out: Solubility) is less than 1000 µg/mL; in data set [1] (MeOH:DCM (1:3), organic solvent or mixture, MeOH:DCM (1:3), ambient, read-out: Solubility) it was 37000 µg/mL (≈ 70100 µM); in data set [1] (MeOH:H2O (90:10), organic solvent or mixture, MeOH:H2O (90:10), aw = 0.29, ambient, read-out: Solubility), 1000 µg/mL (≈ 1900 µM); in data set [1] (NMP, organic solvent or mixture, NMP, ambient, read-out: Solubility), 8000 µg/mL (≈ 15200 µM); in data set [1] (TFE, organic solvent or mixture, TFE, ambient, read-out: Solubility) it was 17000 µg/mL (≈ 32200 µM); in data set [1] (THF, organic solvent or mixture, THF, ambient, read-out: Solubility) it was less than 1000 µg/mL. Further, the solubility in data set [1] (acetic acid (AcOH), organic solvent or mixture, AcOH, ambient, read-out: Solubility) is greater than 59000 µg/mL; in data set [1] (acetone, organic solvent or mixture, Acetone, ambient, read-out: Solubility), 1000 µg/mL (≈ 1900 µM); in data set [1] (acetone:H2O (90:10), organic solvent or mixture, acetone:H2O (90:10), aw = 0.69, ambient, read-out: Solubility), 2000 µg/mL (≈ 3790 µM); in data set [1] (i-PrOH, organic solvent or mixture, i-PrOH, ambient, read-out: Solubility) it was less than 1000 µg/mL; in data set [1] (organic solvent or mixture, 10% water added to acetone, ethanol, and methanol, ambient, read-out: solubility after addition of 10% water) it was 1000 to 2000 µg/mL (≈ 1900 to 3790 µM); in data set [1] (organic solvent or mixture, in acetone, chloroform, MEK, and aprotic solvents DMSO, DMAc, and NMP, ambient, read-out: limited solubility) it was 1000 to 8000 µg/mL (≈ 1900 to 15200 µM). Further, the solubility is less than 1000 µg/mL in data set [1] (toluene, organic solvent or mixture, toluene, ambient, read-out: Solubility) and less than 1000 µg/mL in data set [1] (water, H2O, ambient, read-out: Solubility). Besides, in data set [1] (AcOH, ambient), the “Solubility (mg/mL)” value is given as >59^b mg/mL. The “XRPD Result” value in data set [2] (75% RH) is recorded as “Forms B + C + larger peaks”; in data set [2] (97% RH), “Forms B + C + peaks”. In addition, the weight gain was determined as 0.56% weight gain in data set [2] (75% RH) and 0.71% weight gain in data set [2] (97% RH).

As to `CN(C)C(=O)Nc1cc(Oc2cnc3nc(Nc4cc(C(F)(F)F)cn(C)c4=O)n(C)c3c2C#N)ccn1` [Form C], the “Desorp Mass Change (%)” value in data set [3] (DVS cycle 1, target RH 5%) is on record as 0.028%; in data set [3] (DVS cycle 1, target RH 15%) it was 1.354%; in data set [3] (DVS cycle 1, target RH 25%) it was 1.757%; in data set [3] (DVS cycle 1, target RH 35%), 1.927%; in data set [3] (DVS cycle 1, target RH 45%), 2.061%; in data set [3] (DVS cycle 1, target RH 55%), 2.161%. In addition, the “Desorp Mass Change (%)” value in data set [3] (DVS cycle 1, target RH 65%) was 2.240%; in data set [3] (DVS cycle 1, target RH 75%) it was 2.323%; in data set [3] (DVS cycle 1, target RH 85%), 2.437%; in data set [3] (DVS cycle 1, target RH 95%), 2.620%. For the same compound, the “Sorp Mass Change (%)” value in data set [3] (DVS cycle 1, target RH 5%) was 0.005%; in data set [3] (DVS cycle 1, target RH 15%), 1.314%; in data set [3] (DVS cycle 1, target RH 25%), 1.741%; in data set [3] (DVS cycle 1, target RH 35%), 1.912%; in data set [3] (DVS cycle 1, target RH 45%), 2.017%; in data set [3] (DVS cycle 1, target RH 55%), 2.100%. The “Sorp Mass Change (%)” value was 2.178% in data set [3] (DVS cycle 1, target RH 65%); 2.262% in data set [3] (DVS cycle 1, target RH 75%); 2.375% in data set [3] (DVS cycle 1, target RH 85%); 2.620% in data set [3] (DVS cycle 1, target RH 95%). Also, the Hysteresis turned out to be 0.040 in data set [3] (DVS cycle 1, target RH 15%); 0.016 in data set [3] (DVS cycle 1, target RH 25%); 0.015 in data set [3] (DVS cycle 1, target RH 35%); 0.044 in data set [3] (DVS cycle 1, target RH 45%); 0.061 in data set [3] (DVS cycle 1, target RH 55%); 0.061 in data set [3] (DVS cycle 1, target RH 65%). Besides, the Hysteresis in data set [3] (DVS cycle 1, target RH 75%) was 0.061; in data set [3] (DVS cycle 1, target RH 85%), 0.062. In addition, the entries for the “weight gain during sorption” value in data set [3] (5-25% RH) and in data set [3] (5-95% RH) were 1.74% and 2.6%, respectively. Also, the “XRPD pattern of the post-DVS sample” value in data set [3] (after DVS experiment) is recorded as “consistent with Form C with slight peak shifting”.

For the compound `CN(C)C(=O)Nc1cc(Oc2cnc3nc(Nc4cc(C(F)(F)F)cn(C)c4=O)n(C)c3c2C#N)ccn1` [Form I], the “relative stability of anhydrous forms” value in data set [4] is “metastable form with respect to Form B”.
